Test results as given in article PMC5218480 (PLoS ONE, 2017).

Test system: MV-4-11 cells
Experiment: Gene expression microarray analysis (Affymetrix PrimeView) and GSEA
Assay type: cell-based, human
Set-up: RFU PODN (11730768_x_at) / Fold change /veh PODN (11730768_x_at) / RFU LINC00158 (11744669_a_at) / Fold change /veh LINC00158 (11744669_a_at) / RFU DUSP10 (11751237_a_at) / Fold change /veh DUSP10 (11751237_a_at) / RFU ID3 (11757404_x_at) / Fold change /veh ID3 (11757404_x_at) / RFU PLEKHG5 (11737974_s_at) / Fold change /veh PLEKHG5 (11737974_s_at) / RFU LRRC4B (11730491_at) / Fold change /veh LRRC4B (11730491_at) / RFU GIMAP4 (11747438_a_at) / Fold change /veh GIMAP4 (11747438_a_at) / RFU KRT8 (11758183_x_at) / Fold change /veh KRT8 (11758183_x_at) / RFU CNN1 (11734310_a_at) / Fold change /veh CNN1 (11734310_a_at) / RFU VPS37D (11726825_at) / Fold change /veh VPS37D (11726825_at) / RFU C10orf10 (11716522_x_at) / Fold change /veh C10orf10 (11716522_x_at) / RFU KIR2DL2 /// KIR2DL4 /// KIR2DL5A /// KIR2DL5B /// KIR2DS1 /// KIR2DS2 /// KIR2DS3 /// KIR2DS4 /// KIR3DL3 /// KIR3DL3 /// KIR3DS1 (11738374_at) / Fold change /veh KIR2DL2 /// KIR2DL4 /// KIR2DL5A /// KIR2DL5B /// KIR2DS1 /// KIR2DS2 /// KIR2DS3 /// KIR2DS4 /// KIR3DL3 /// KIR3DL3 /// KIR3DS1 (11738374_at) / RFU C1QL1 (11718748_at) / Fold change /veh C1QL1 (11718748_at) / RFU TMPRSS4 (11747572_a_at) / Fold change /veh TMPRSS4 (11747572_a_at) / RFU HAMP (11756126_x_at) / Fold change /veh HAMP (11756126_x_at) / RFU RNFT2 (11725882_a_at) / Fold change /veh RNFT2 (11725882_a_at) / RFU NR4A2 (11747474_a_at) / Fold change /veh NR4A2 (11747474_a_at) / RFU ABCC12 (11746883_a_at) / Fold change /veh ABCC12 (11746883_a_at) / RFU TMEM136 (11760407_x_at) / Fold change /veh TMEM136 (11760407_x_at) / RFU CLDN22 /// WWC2 (11732394_at) / Fold change /veh CLDN22 /// WWC2 (11732394_at) / RFU HLA-DPB1 (11760878_x_at) / Fold change /veh HLA-DPB1 (11760878_x_at) / RFU SPINT1 (11716480_a_at) / Fold change /veh SPINT1 (11716480_a_at) / RFU GAP43 (11754022_s_at) / Fold change /veh GAP43 (11754022_s_at) / RFU A4GNT (11735810_at) / Fold change /veh A4GNT (11735810_at) / RFU PRB3 (11715151_x_at) / Fold change /veh PRB3 (11715151_x_at) / RFU TUBB4B (11761932_at) / Fold change /veh TUBB4B (11761932_at) / RFU CAPN14 (11732068_a_at) / Fold change /veh CAPN14 (11732068_a_at) / RFU TMCC2 (11721928_a_at) / Fold change /veh TMCC2 (11721928_a_at) / RFU IRGQ (11745062_a_at) / Fold change /veh IRGQ (11745062_a_at) / RFU FAM174B (11720279_a_at) / Fold change /veh FAM174B (11720279_a_at) / RFU TMPRSS4 (11748680_a_at) / Fold change /veh TMPRSS4 (11748680_a_at) / RFU FAM212B (11763350_a_at) / Fold change /veh FAM212B (11763350_a_at) / RFU PLEKHG5 (11743358_a_at) / Fold change /veh PLEKHG5 (11743358_a_at) / RFU ZSCAN30 (11745921_a_at) / Fold change /veh ZSCAN30 (11745921_a_at) / RFU CMKLR1 (11741424_a_at) / Fold change /veh CMKLR1 (11741424_a_at) / RFU LOC101060620 /// MAPK8IP1 (11723275_at) / Fold change /veh LOC101060620 /// MAPK8IP1 (11723275_at) / RFU SPTSSB (11747773_x_at) / Fold change /veh SPTSSB (11747773_x_at) / RFU PRSS12 (11739890_at) / Fold change /veh PRSS12 (11739890_at) / RFU BIN1 (11741810_x_at) / Fold change /veh BIN1 (11741810_x_at) / RFU WNT11 (11732464_a_at) / Fold change /veh WNT11 (11732464_a_at) / RFU C10orf10 (11716521_a_at) / Fold change /veh C10orf10 (11716521_a_at) / RFU C5orf56 (11738089_at) / Fold change /veh C5orf56 (11738089_at) / RFU CYB561 (11721691_x_at) / Fold change /veh CYB561 (11721691_x_at) / RFU ANKRD19P (11752326_a_at) / Fold change /veh ANKRD19P (11752326_a_at) / RFU OR2T12 /// OR2T33 /// OR2T8 (11738714_s_at) / Fold change /veh OR2T12 /// OR2T33 /// OR2T8 (11738714_s_at) / RFU VCAN (11748164_a_at) / Fold change /veh VCAN (11748164_a_at) / RFU JSRP1 (11732532_at) / Fold change /veh JSRP1 (11732532_at) / RFU KRTAP10-11 (11738290_x_at) / Fold change /veh KRTAP10-11 (11738290_x_at) / RFU MYO3A (11730013_a_at) / Fold change /veh MYO3A (11730013_a_at) / RFU EBF3 (11725865_a_at) / Fold change /veh EBF3 (11725865_a_at) / RFU CAMK2N1 (11719241_x_at) / Fold change /veh CAMK2N1 (11719241_x_at) / RFU C5orf56 (11738088_a_at) / Fold change /veh C5orf56 (11738088_a_at) / RFU OLFML3 (11715873_a_at) / Fold change /veh OLFML3 (11715873_a_at) / RFU LOC100653217 /// NTM (11731650_a_at) / Fold change /veh LOC100653217 /// NTM (11731650_a_at) / RFU MAPK11 (11762145_a_at) / Fold change /veh MAPK11 (11762145_a_at) / RFU FIZ1 (11724087_x_at) / Fold change /veh FIZ1 (11724087_x_at) / RFU OASL (11726364_x_at) / Fold change /veh OASL (11726364_x_at) / RFU SOX15 (11748057_x_at) / Fold change /veh SOX15 (11748057_x_at) / RFU CD79A (11719716_a_at) / Fold change /veh CD79A (11719716_a_at) / RFU HIST1H1D (11736915_at) / Fold change /veh HIST1H1D (11736915_at) / RFU CASKIN2 (11723855_a_at) / Fold change /veh CASKIN2 (11723855_a_at) / RFU LOC730098 (11760151_x_at) / Fold change /veh LOC730098 (11760151_x_at) / RFU OR4N2 (11742367_at) / Fold change /veh OR4N2 (11742367_at) / RFU PRRT2 (11749266_a_at) / Fold change /veh PRRT2 (11749266_a_at) / RFU SNX32 (11753110_a_at) / Fold change /veh SNX32 (11753110_a_at) / RFU CDHR5 (11726645_a_at) / Fold change /veh CDHR5 (11726645_a_at) / RFU RCAN1 (11760418_a_at) / Fold change /veh RCAN1 (11760418_a_at) / RFU FAM167A (11723789_a_at) / Fold change /veh FAM167A (11723789_a_at) / RFU FAM26E (11764081_at) / Fold change /veh FAM26E (11764081_at) / RFU ISYNA1 (11749810_s_at) / Fold change /veh ISYNA1 (11749810_s_at) / RFU ACY1 (11761880_at) / Fold change /veh ACY1 (11761880_at) / RFU 11764098_at / Fold change /veh 11764098_at / RFU SAMD14 (11745864_x_at) / Fold change /veh SAMD14 (11745864_x_at) / RFU NPB (11741838_a_at) / Fold change /veh NPB (11741838_a_at) / RFU TMPRSS6 (11731388_a_at) / Fold change /veh TMPRSS6 (11731388_a_at) / RFU KRTAP10-2 (11738614_at) / Fold change /veh KRTAP10-2 (11738614_at) / RFU ARHGAP8 /// PRR5-ARHGAP8 (11727945_x_at) / Fold change /veh ARHGAP8 /// PRR5-ARHGAP8 (11727945_x_at) / RFU KRTAP5-7 /// NADSYN1 (11734609_at) / Fold change /veh KRTAP5-7 /// NADSYN1 (11734609_at) / RFU RASL12 (11751679_a_at) / Fold change /veh RASL12 (11751679_a_at) / RFU CDKN2B (11736163_a_at) / Fold change /veh CDKN2B (11736163_a_at) / RFU PRF1 (11729649_at) / Fold change /veh PRF1 (11729649_at) / RFU, ZNF638 /// ZNF638-IT1 / Fold change vs veh, ZNF638 /// ZNF638-IT1 / RFU, PANK3 / Fold change vs veh, PANK3 / RFU, SH3YL1 / Fold change vs veh, SH3YL1 / RFU, ZEB2 / Fold change vs veh, ZEB2 / RFU, NRIP1 / Fold change vs veh, NRIP1 / RFU, PTTG1IP / Fold change vs veh, PTTG1IP / RFU, CAPN2 / Fold change vs veh, CAPN2 / RFU, MED14 / Fold change vs veh, MED14 / RFU, SNORA58 / Fold change vs veh, SNORA58 / RFU, C1orf63 / Fold change vs veh, C1orf63 / RFU, LRRFIP1 / Fold change vs veh, LRRFIP1 / RFU, NDUFAF7 / Fold change vs veh, NDUFAF7 / RFU, SLC12A2 / Fold change vs veh, SLC12A2 / RFU, IBTK / Fold change vs veh, IBTK / RFU, ESF1 / Fold change vs veh, ESF1 / Fold change vs veh, TMEM50B / RFU, TAOK1 / Fold change vs veh, TAOK1 / RFU, ACBD3 / Fold change vs veh, ACBD3 / RFU, TMA16 / Fold change vs veh, TMA16 / RFU, RWDD3 / Fold change vs veh, RWDD3 / RFU, BCAT1 / Fold change vs veh, BCAT1 / RFU, EDEM3 / Fold change vs veh, EDEM3 / RFU, TMEM33 / Fold change vs veh, TMEM33 / RFU, WDR75 / Fold change vs veh, WDR75 / RFU, AHCTF1 / Fold change vs veh, AHCTF1 / RFU, TFRC / Fold change vs veh, TFRC / RFU, ZDHHC17 / Fold change vs veh, ZDHHC17 / RFU, NOM1 / Fold change vs veh, NOM1 / RFU, ARL8B / Fold change vs veh, ARL8B / RFU, ZBTB11 / Fold change vs veh, ZBTB11 / RFU, TAMM41 / Fold change vs veh, TAMM41 / RFU, KIAA1704 /// LOC100996395 / Fold change vs veh, KIAA1704 /// LOC100996395 / RFU, ING1 / Fold change vs veh, ING1 / RFU, TRMT61B / Fold change vs veh, TRMT61B / RFU, FUBP3 / Fold change vs veh, FUBP3 / RFU, TP53 / Fold change vs veh, TP53 / RFU, TNKS2 / Fold change vs veh, TNKS2 / RFU, ZFP14 / Fold change vs veh, ZFP14 / RFU, ACTR2 / Fold change vs veh, ACTR2 / RFU, PPP3R1 / Fold change vs veh, PPP3R1 / RFU, PIK3R1 / Fold change vs veh, PIK3R1 / RFU, HNRNPA1 / Fold change vs veh, HNRNPA1 / RFU, RNF170 / Fold change vs veh, RNF170 / RFU, ZNF28 / Fold change vs veh, ZNF28 / RFU, RNGTT / Fold change vs veh, RNGTT / RFU, OGT / Fold change vs veh, OGT / RFU, BRD1 / Fold change vs veh, BRD1 / RFU, MARS / Fold change vs veh, MARS / RFU, ZNF655 / Fold change vs veh, ZNF655 / RFU, FAHD1 / Fold change vs veh, FAHD1 / RFU, BDP1 / Fold change vs veh, BDP1 / RFU, LRRCC1 / Fold change vs veh, LRRCC1 / RFU, ARID1A / Fold change vs veh, ARID1A / RFU, ZNF146 / Fold change vs veh, ZNF146 / RFU, ZNF330 / Fold change vs veh, ZNF330 / RFU, GPN3 / Fold change vs veh, GPN3 / RFU, C9orf123 / Fold change vs veh, C9orf123 / RFU, N4BP2L2 / Fold change vs veh, N4BP2L2 / RFU, ARFIP1 / Fold change vs veh, ARFIP1 / RFU, FAM179B / Fold change vs veh, FAM179B / RFU, BCL10 / Fold change vs veh, BCL10 / RFU, UHRF1BP1L / Fold change vs veh, UHRF1BP1L / RFU, BET1 / Fold change vs veh, BET1 / RFU, CNOT2 / Fold change vs veh, CNOT2 / RFU, ZNF268 / Fold change vs veh, ZNF268 / Fold change vs veh, ZNF507 / RFU, DGCR2 / Fold change vs veh, DGCR2 / RFU, WDSUB1 / Fold change vs veh, WDSUB1 / Fold change vs veh, HSP90B1 /// MIR3652 / RFU, ADSS / Fold change vs veh, ADSS / RFU, GK / Fold change vs veh, GK / RFU, ZNF148 / Fold change vs veh, ZNF148 / RFU, TAF9 / Fold change vs veh, TAF9 / RFU, SLC1A5 / Fold change vs veh, SLC1A5 / RFU, SLMO2 / Fold change vs veh, SLMO2 / RFU, ABCC4 / Fold change vs veh, ABCC4 / RFU, LOC101060439 /// RAP1B / Fold change vs veh, LOC101060439 /// RAP1B / RFU, RFX7 / Fold change vs veh, RFX7 / RFU, GTPBP10 / Fold change vs veh, GTPBP10 / RFU, CNEP1R1 / Fold change vs veh, CNEP1R1 / RFU, BIVM-ERCC5 /// ERCC5 / Fold change vs veh, BIVM-ERCC5 /// ERCC5 / RFU, ILF3 / Fold change vs veh, ILF3 / RFU 11762660_at / Fold change /veh 11762660_at / RFU VCAN (11757783_s_at) / Fold change /veh VCAN (11757783_s_at) / RFU DDX43 (11728927_at) / Fold change /veh DDX43 (11728927_at) / RFU KRT8 (11758188_x_at) / Fold change /veh KRT8 (11758188_x_at) / RFU NKD1 (11759106_at) / Fold change /veh NKD1 (11759106_at) / RFU SRD5A1 (11742802_a_at) / Fold change /veh SRD5A1 (11742802_a_at) / RFU TPSAB1 /// TPSB2 (11721975_s_at) / Fold change /veh TPSAB1 /// TPSB2 (11721975_s_at) / RFU GSTM3 (11746129_a_at) / Fold change /veh GSTM3 (11746129_a_at) / RFU IL23R (11737362_x_at) / Fold change /veh IL23R (11737362_x_at) / RFU TMEM51 (11727254_a_at) / Fold change /veh TMEM51 (11727254_a_at) / RFU PIWIL2 (11732686_x_at) / Fold change /veh PIWIL2 (11732686_x_at) / RFU ORM1 (11744905_x_at) / Fold change /veh ORM1 (11744905_x_at) / RFU CCDC152 (11743942_at) / Fold change /veh CCDC152 (11743942_at) / RFU ECM1 (11717891_a_at) / Fold change /veh ECM1 (11717891_a_at) / RFU IL23R (11748794_a_at) / Fold change /veh IL23R (11748794_a_at) / RFU TNFAIP8L3 (11732012_x_at) / Fold change /veh TNFAIP8L3 (11732012_x_at) / RFU MBOAT4 (11741988_at) / Fold change /veh MBOAT4 (11741988_at) / RFU 11764193_at / Fold change /veh 11764193_at / RFU TMEM53 (11763286_at) / Fold change /veh TMEM53 (11763286_at) / RFU MAGEB2 (11727129_at) / Fold change /veh MAGEB2 (11727129_at) / RFU TMEM200A (11744735_a_at) / Fold change /veh TMEM200A (11744735_a_at) / RFU CCDC152 (11751479_a_at) / Fold change /veh CCDC152 (11751479_a_at) / RFU FAM211A (11726209_a_at) / Fold change /veh FAM211A (11726209_a_at) / RFU RGS16 (11746705_a_at) / Fold change /veh RGS16 (11746705_a_at) / RFU VCAN (11755009_s_at) / Fold change /veh VCAN (11755009_s_at) / RFU RHOB (11743442_s_at) / Fold change /veh RHOB (11743442_s_at) / RFU RGS16 (11720943_a_at) / Fold change /veh RGS16 (11720943_a_at) / RFU RGS16 (11720944_at) / Fold change /veh RGS16 (11720944_at) / RFU, VPS4B / Fold change vs veh, VPS4B / RFU, CREB1 / Fold change vs veh, CREB1 / RFU, DNAJC13 / Fold change vs veh, DNAJC13 / RFU, GNAQ / Fold change vs veh, GNAQ / RFU, CDK5R1 / Fold change vs veh, CDK5R1 / RFU, ZRANB3 / Fold change vs veh, ZRANB3 / RFU, CUL4A / Fold change vs veh, CUL4A / RFU, CCNY / Fold change vs veh, CCNY / RFU, UFL1 / Fold change vs veh, UFL1 / RFU, COG3 / Fold change vs veh, COG3 / RFU, DIAPH2 / Fold change vs veh, DIAPH2 / RFU, SKA2 / Fold change vs veh, SKA2 / RFU, AFF3 / Fold change vs veh, AFF3 / RFU, LMF1 / Fold change vs veh, LMF1 / RFU, IPO11 / Fold change vs veh, IPO11 / RFU, DFFB / Fold change vs veh, DFFB / RFU, FOXP1 / Fold change vs veh, FOXP1 / RFU, CARD8 / Fold change vs veh, CARD8 / RFU, STRN3 / Fold change vs veh, STRN3 / RFU, ADK / Fold change vs veh, ADK / RFU, RASSF2 / Fold change vs veh, RASSF2 / RFU, WIPF1 / Fold change vs veh, WIPF1 / RFU, LARP1B / Fold change vs veh, LARP1B / RFU, RASA1 / Fold change vs veh, RASA1 / RFU, RB1 / Fold change vs veh, RB1 / RFU, PPFIA1 / Fold change vs veh, PPFIA1 / RFU, MAT2A / Fold change vs veh, MAT2A / RFU, CCT5 / Fold change vs veh, CCT5 / RFU, WDR92 / Fold change vs veh, WDR92 / RFU, CUX1 / Fold change vs veh, CUX1 / RFU, TTC7A / Fold change vs veh, TTC7A / RFU, TMEM135 / Fold change vs veh, TMEM135 / RFU, DEPTOR / Fold change vs veh, DEPTOR / RFU, CPM / Fold change vs veh, CPM / RFU, DNAJB6 / Fold change vs veh, DNAJB6 / RFU, CACNA2D3 / Fold change vs veh, CACNA2D3 / RFU, DTX4 / Fold change vs veh, DTX4 / RFU, TFCP2 / Fold change vs veh, TFCP2 / RFU, GMCL1 /// GMCL1P1 / Fold change vs veh, GMCL1 /// GMCL1P1 / RFU, AEBP2 / Fold change vs veh, AEBP2 / RFU, SNHG1 /// SNORD22 /// SNORD25 /// SNORD26 /// SNORD27 /// SNORD28 /// SNORD29 /// SNORD31 / Fold change vs veh, SNHG1 /// SNORD22 /// SNORD25 /// SNORD26 /// SNORD27 /// SNORD28 /// SNORD29 /// SNORD31 / Fold change (Aza/veh), C12orf56 (ProbeSet 11735607_a_at) / Fold change (ACY-1035/veh), C12orf56 (ProbeSet 11735607_a_at) / Fold change (Aza/veh), FGFR1OP (ProbeSet 11751329_s_at) / Fold change (ACY-1035/veh), FGFR1OP (ProbeSet 11751329_s_at) / Fold change (Aza/veh), VPS36 (ProbeSet 11739960_a_at) / Fold change (ACY-1035/veh), VPS36 (ProbeSet 11739960_a_at) / RFU SYPL1 (11715823_x_at) / Fold change /veh SYPL1 (11715823_x_at) / RFU IGFBP7 (11715501_s_at) / Fold change /veh IGFBP7 (11715501_s_at) / RFU REEP3 (11722064_at) / Fold change /veh REEP3 (11722064_at) / RFU IGLL1 (11728026_x_at) / Fold change /veh IGLL1 (11728026_x_at): dose or concentration left out as unconfirmed
Settings: ProbeSet 11730252_s_at; LIST B

Nc1ccc(-c2cccs2)cc1NC(=O)c1ccc2c(c1)cc(C1CC1)n2CCN1CCOCC1 [ACY-1035]
RFU, AHCTF1: 224.50 RFU
